Experiment [1] deals with T1, human 5-HT6 receptor (Homo sapiens, UniProt P50406).
T1 construct: expressed in transfected cells; host or cells: HEK293
In words: 5-HT6 binding assay ([3H]-LSD, SPA, membranes of transfected HEK293 cells).

Experiment [2] concerns the target T1, human 5-HT6 receptor. The experiment can be described thus: 5-HT6 intrinsic activity assay (inhibition of 5-HT induced increase in cAMP). Type of experiment: cell-based.
The target of another experiment is T2, 5-HT1a (Homo sapiens, UniProt P08908).
T2 sequence (P08908 1-422): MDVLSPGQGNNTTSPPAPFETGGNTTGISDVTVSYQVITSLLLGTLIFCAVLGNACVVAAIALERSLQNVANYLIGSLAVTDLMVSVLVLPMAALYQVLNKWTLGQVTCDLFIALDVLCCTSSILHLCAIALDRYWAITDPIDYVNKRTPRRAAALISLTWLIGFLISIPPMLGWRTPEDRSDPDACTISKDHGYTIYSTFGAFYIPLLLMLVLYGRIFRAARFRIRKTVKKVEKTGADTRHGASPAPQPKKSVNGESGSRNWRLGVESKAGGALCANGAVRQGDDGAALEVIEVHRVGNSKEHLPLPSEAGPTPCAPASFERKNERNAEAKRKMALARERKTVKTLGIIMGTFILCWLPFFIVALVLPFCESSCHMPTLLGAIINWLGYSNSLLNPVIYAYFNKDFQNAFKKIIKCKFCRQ
The experiment can be described thus: Selectivity binding 5-HT1a. As to conditions: read-out: 5-HT1a Selectivity Binding (Ki).

In the next experiment the target is 5-HT1b (Homo sapiens, UniProt P28222). The experiment can be described thus: Selectivity binding 5-HT1b. As to conditions: read-out: 5-HT1b Selectivity Binding (Ki).
5-HT1b, sequence (P28222 whole entry, species assumed): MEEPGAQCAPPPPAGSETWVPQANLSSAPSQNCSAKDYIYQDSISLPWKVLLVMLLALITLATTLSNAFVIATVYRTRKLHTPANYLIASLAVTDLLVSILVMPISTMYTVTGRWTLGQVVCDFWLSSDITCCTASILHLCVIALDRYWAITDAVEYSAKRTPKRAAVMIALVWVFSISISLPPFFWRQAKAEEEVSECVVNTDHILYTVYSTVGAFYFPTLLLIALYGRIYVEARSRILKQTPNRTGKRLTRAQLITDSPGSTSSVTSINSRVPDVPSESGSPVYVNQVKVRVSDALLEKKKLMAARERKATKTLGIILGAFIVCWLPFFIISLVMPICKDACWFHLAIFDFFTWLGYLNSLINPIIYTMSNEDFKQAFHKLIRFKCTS
The next experiment concerns the target 5-HT2a (Homo sapiens, UniProt P28223). The experiment can be described thus: Selectivity binding 5-HT2a. To be noted: read-out: 5-HT2a Selectivity Binding (Ki).
Another experiment deals with 5-HT2b (Homo sapiens, UniProt P41595). In words: Selectivity binding 5-HT2b.
5-HT2b, sequence (P41595 whole entry, species assumed): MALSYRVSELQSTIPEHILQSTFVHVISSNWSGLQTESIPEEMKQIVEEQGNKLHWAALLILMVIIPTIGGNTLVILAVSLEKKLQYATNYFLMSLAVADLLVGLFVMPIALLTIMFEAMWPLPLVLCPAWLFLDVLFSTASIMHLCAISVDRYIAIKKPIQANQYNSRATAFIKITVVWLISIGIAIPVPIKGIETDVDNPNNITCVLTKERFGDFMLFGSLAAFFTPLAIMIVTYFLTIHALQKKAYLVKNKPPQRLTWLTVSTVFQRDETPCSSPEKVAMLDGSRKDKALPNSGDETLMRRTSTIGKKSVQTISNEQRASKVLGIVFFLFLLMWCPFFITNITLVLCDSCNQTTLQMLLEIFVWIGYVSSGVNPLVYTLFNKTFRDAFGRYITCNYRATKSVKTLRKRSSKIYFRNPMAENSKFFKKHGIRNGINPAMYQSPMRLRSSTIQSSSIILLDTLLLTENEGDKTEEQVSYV
The target of a further experiment is T3, 5-HT2c (Homo sapiens, UniProt P28335).
T3 sequence (P28335 33-458): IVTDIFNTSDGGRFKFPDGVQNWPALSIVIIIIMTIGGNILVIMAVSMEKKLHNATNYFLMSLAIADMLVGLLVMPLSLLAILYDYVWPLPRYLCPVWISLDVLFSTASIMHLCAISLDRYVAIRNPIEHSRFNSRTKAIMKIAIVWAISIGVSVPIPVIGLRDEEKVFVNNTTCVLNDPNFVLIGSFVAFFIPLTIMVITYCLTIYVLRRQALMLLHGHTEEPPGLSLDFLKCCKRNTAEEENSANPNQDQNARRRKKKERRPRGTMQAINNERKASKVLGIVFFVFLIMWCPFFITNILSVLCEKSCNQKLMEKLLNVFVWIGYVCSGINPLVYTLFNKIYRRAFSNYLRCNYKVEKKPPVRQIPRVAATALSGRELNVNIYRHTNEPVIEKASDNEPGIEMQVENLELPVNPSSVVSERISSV
In words: Selectivity binding 5-HT2c. As to conditions: read-out: 5-HT2c Selectivity Binding (Ki).

Another experiment concerns the target T4, β1 (Homo sapiens, UniProt P08588).
T4 construct: expressed in transfected cells; host or cells: HEK-293 cells
In words: β1 binding (human recombinant, HEK-293 cells).

For a further experiment, the target named is T5, β2 (Homo sapiens, UniProt P07550).
T5 construct: expressed in transfected cells; host or cells: Sf9 cells
T5 sequence (P07550 whole entry): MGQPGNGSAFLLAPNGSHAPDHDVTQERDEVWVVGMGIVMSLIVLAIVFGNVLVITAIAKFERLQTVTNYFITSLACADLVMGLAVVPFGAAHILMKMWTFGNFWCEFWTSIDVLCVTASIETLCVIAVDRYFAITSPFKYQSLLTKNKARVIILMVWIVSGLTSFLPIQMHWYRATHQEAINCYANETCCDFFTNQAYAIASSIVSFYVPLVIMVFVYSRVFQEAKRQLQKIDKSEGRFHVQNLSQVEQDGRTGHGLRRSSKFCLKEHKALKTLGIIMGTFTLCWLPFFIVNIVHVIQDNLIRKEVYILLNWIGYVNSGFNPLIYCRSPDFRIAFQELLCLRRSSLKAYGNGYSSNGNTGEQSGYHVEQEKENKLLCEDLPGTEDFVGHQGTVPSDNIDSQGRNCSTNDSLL
In words: β2 binding (human recombinant, Sf9 cells).

Another experiment concerns the target T6, κ (KOP) (Cavia porcellus, UniProt P41144).
T6 construct: Guinea-pig cerebellum; from tissue; host or cells: guinea-pig cerebellum
The experiment can be described thus: κ (KOP) binding (guinea-pig cerebellum). As to conditions: 1 μM.

The target of a further experiment is T7, 5-HT3 (Homo sapiens, UniProt P46098).
T7 construct: expressed in transfected cells; host or cells: HEK-293 cells
T7 sequence (P46098 24-478): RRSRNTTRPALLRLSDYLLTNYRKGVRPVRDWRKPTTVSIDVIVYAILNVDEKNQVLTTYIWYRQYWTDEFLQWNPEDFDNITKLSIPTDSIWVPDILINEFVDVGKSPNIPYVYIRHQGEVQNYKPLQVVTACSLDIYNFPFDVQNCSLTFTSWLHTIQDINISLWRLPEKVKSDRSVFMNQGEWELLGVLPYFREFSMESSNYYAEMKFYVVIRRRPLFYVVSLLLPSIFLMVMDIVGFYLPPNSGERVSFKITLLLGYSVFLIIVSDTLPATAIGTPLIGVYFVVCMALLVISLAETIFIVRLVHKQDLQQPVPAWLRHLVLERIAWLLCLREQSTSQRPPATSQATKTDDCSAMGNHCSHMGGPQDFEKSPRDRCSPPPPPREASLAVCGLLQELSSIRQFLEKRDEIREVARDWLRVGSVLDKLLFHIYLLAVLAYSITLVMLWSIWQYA
In words: 5-HT3 binding (human recombinant, HEK-293 cells). To be noted: 1 μM.

[3] abbreviates: competition with 3 nM [3H] LSD, HEK293 membranes, read-out: 5-HT6 Binding (Ki).

The structures appear in SMILES notation. Counter-ions that a name gives are not always drawn.

5-HT2a, sequence (P28223 whole entry, species assumed): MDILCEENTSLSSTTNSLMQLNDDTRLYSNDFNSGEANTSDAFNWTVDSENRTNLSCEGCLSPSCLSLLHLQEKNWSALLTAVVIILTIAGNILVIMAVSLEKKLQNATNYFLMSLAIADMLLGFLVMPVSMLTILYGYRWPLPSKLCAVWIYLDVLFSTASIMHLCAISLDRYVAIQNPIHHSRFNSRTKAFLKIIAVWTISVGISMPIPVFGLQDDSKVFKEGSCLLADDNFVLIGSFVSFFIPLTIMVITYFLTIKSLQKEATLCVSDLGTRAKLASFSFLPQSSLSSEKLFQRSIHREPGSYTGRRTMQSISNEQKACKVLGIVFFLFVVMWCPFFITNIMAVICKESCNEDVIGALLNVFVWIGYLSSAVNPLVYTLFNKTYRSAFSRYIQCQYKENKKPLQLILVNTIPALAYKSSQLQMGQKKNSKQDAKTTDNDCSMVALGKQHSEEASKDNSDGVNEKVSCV
T1 sequence (P50406 whole entry): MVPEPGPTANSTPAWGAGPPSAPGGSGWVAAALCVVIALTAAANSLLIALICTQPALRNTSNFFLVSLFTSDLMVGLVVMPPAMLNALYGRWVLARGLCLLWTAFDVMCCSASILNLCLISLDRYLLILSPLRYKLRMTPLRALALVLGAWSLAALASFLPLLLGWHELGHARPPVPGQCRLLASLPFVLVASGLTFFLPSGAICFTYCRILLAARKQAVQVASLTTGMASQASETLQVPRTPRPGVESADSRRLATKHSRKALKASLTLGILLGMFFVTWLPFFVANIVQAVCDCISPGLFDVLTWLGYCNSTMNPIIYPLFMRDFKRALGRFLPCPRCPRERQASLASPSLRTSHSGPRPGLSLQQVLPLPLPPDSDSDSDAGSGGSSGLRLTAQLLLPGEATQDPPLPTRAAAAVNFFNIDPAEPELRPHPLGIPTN
T6 sequence (P41144 whole entry): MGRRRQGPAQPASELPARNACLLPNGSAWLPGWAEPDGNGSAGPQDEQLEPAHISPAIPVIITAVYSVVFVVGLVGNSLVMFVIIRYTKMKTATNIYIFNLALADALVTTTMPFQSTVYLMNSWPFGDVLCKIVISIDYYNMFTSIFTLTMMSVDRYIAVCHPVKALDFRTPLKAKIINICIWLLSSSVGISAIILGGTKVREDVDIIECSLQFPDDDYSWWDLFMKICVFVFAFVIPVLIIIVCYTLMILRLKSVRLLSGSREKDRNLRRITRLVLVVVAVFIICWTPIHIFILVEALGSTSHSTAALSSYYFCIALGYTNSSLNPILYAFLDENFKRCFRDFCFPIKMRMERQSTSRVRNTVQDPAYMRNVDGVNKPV
T4 sequence (P08588 whole entry): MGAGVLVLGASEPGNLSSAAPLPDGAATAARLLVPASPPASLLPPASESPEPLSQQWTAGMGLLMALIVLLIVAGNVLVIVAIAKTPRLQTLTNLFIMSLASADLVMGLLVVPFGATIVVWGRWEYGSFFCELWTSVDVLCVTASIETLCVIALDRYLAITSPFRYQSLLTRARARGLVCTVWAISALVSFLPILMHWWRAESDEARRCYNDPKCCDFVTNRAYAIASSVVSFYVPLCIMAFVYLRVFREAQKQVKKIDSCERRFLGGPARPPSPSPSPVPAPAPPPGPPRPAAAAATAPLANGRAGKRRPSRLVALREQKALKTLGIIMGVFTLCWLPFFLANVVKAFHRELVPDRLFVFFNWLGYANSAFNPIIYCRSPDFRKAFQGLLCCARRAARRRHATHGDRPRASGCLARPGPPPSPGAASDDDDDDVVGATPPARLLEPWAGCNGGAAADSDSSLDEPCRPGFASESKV

In general, Ki refers to a dissociation constant, usually derived from enzyme kinetics or from competition with a known ligand. For the compound `O=S(=O)(Nc1cc(OC2CCNCC2)c2occc2c1)c1ccccc1C(F)(F)F` [Compound B, N-[7-(4-piperidinyloxy)-1-benzofuran-5-yl]-2-trifluoromethylbenzenesulphonamide], the Ki on human 5-HT6 receptor [1] (setting [3]) was 4 nM; at human 5-HT6 receptor [2], 3 nM; on 5-HT1a, greater than 1000 nM; on 5-HT1b, 1290 nM; at 5-HT2a, greater than 1000 nM; on 5-HT2b, 545 nM. For the same compound, the inhibition constant Ki on 5-HT2c is greater than 1000 nM. In addition, the “β1 Binding % inihibition 1 μM” value at β1 was determined as 82%. Further, the “β2 Binding % inihibition 1 μM” value on β2 came to 82%. For the same compound, the “κ (KOP) Binding % inihibition 1 μM” value on κ (KOP) worked out at 83%. The “5-HT3 Binding % inihibition 1 μM” value at 5-HT3 amounted to 91%.

Regarding `COc1ccc(C)cc1NS(=O)(=O)c1cc(OC2CCCNC2)c2occc2c1` (centres unmarked) [Compound D], the Ki turned out to be 14 nM on human 5-HT6 receptor [1]; 37 nM at human 5-HT6 receptor [2]; 917 nM at 5-HT2a; 1450 nM at 5-HT2b; 1370 nM on 5-HT2c.

With `O=S(=O)(Nc1cc(N2CCNCC2)c2occc2c1)c1cccc2ccccc12` [Ex. 148, N-(7-piperazin-1-yl-benzofuran-5-yl)-1-naphthylsulphonamide, hydrochloride], the inhibitory constant (Ki) on human 5-HT6 receptor [1] (setting [3]) was found to be 0.18 nM; on human 5-HT6 receptor [2], 6 nM; at 5-HT2a, 412 nM; on 5-HT2b, 19.7 nM; on 5-HT2c it was 158 nM.

For the compound `CN1C[C@@H](NS(=O)(=O)N(C)C)C[C@@H]2c3cccc4c3c(cn4C)C[C@H]21` [mesulergide], on human 5-HT6 receptor [1] (setting [3]), the Ki turned out to be 1970 nM.

In the case of `Cl.O=S(=O)(Nc1cc(OC2CCNCC2)c2occc2c1)c1ccc(Cl)s1` [Compound A, 5-chlorothiophene-2-sulphonic acid, [7-(piperidin-4-yloxy)-benzofuran-5-yl]amide, hydrochloride], the Ki on human 5-HT6 receptor [1] (setting [3]) was 9 nM; on human 5-HT6 receptor [2] it was 6 nM; at 5-HT1a, 1520 nM; on 5-HT1b, 1470 nM; at 5-HT2a, greater than 1000 nM; on 5-HT2b, 356 nM. At 5-HT2c, the inhibitory constant (Ki) was greater than 1000 nM. Further, the “β1 Binding % inihibition 1 μM” value at β1 is 80%. Further, at β2, the “β2 Binding % inihibition 1 μM” value is reported as 89%. The “κ (KOP) Binding % inihibition 1 μM” value on κ (KOP) is recorded as 71%. The “5-HT3 Binding % inihibition 1 μM” value on 5-HT3 is recorded as 90%.

Turning to `COc1cccc(C)c1NS(=O)(=O)c1cc(OC2CCNCC2)c2occc2c1` [Compound C], the Ki at human 5-HT6 receptor [1] is 26 nM; on human 5-HT6 receptor [2], 51 nM; on 5-HT2a, 1000 nM; on 5-HT2b, 600 nM; at 5-HT2c, 1250 nM.

(Values after patent US7582767B2 (Biovitrum AB (publ.), priority 2005, dated 2009).)
